These results are taken from US20040127363A1, “Pesticidal compositions containing silicon compounds” (priority 2000, published 2004).

This assay deals with mites and insects. Kind of assay: Pesticidal activity in a variety of application forms. Particulars: diluted aqueous solutions, emulsions with surfactant, or without any solvent. The class given is in vivo. How it is done:
The pesticidal activity was found both in diluted aqueous solutions and in emulsions together with suitable ionic, amphoteric or non-ionic surfactant, or without any solvent.
The pesticidal activity of the silicon esters of the present invention was tested against mites and insects.

Take `CCCCO[Si](OCCCC)(OCCCC)OCCCC` [tetrabutyl ortho silicate]: the pesticidal activity result was “high pesticidal activity”.
